Data reported in patent US20200325505A1, “FILAMENTOUS FUNGI CAPABLE OF PRODUCING VERY LONG CHAIN FATTY ACIDS” (UT-Battelle, LLC, priority 2019, published 2020).
Residues, ends and D or L forms follow the SMILES beside them.

Columns and labels:
[1] = system: Mortierella elongata AG77; test: Nitrogen source utilisation in Biolog 96-well plates, formazan formation after tetrazolium addition; type: cell-based; conditions: for Metabolized: Metabolized = more formazan formation than a control containing no nitrogen source, observed visually at 2 h, 24 h, 148 h; for Nitrogen sources that Mortierella elongata AG77 can metabolize: text summary of Table 4
Method: Two 300 mL volumes of growth medium comprising 1 g/L KH2PO4, 1 g/L MgSO4 7H2O, 0.1 g/L CaCl2, 0.02 g/L FeNaEDTA, 0.1 g/L NaCl, and either 1 g/L NH4NO3 or 20 g/L sucrose were prepared. […] Aliquots of 200 μL of carbon-free medium or nitrogen-free medium were pipetted into each well of a set of 96-well plates previously prepared with lyophilized putative carbon or nitrogen sources (Biolog Inc., Hayward, Calif.). Inocula were prepared by perforating a culture of Mortierella elongata AG77 grown on 20 g/L potato dextrose agar with a 3 mm diameter cork borer and separating the surface mycelial mat from the solid growth medium using tweezers. Each well was inoculated with one inoculum. Cultures were incubated at 21° C. for 24 hours to allow metabolic changes to stabilize, and then 100 μL of 3 g/L tetrazolium chloride in water was added to each well.
Conclusions were based on rate and intensity of formazan formation using the 3-(4,5-dimethylthiazol-2-yl)-2,5-diphenyltetrazolium bromide ([…]) assay. “Metabolized” indicates more formazan formation than a control containing no nitrogen source, and “Toxic” indicates less formazan formation than a control containing no nitrogen source, “Metabolized” and “Toxic” assignments are mutually exclusive. In this example, a compound may be “Metabolized” or “Toxic,” but not both.

[2] = system: Mortierella elongata AG77; test: Carbon source utilisation in Biolog 96-well plates, formazan formation after tetrazolium addition; type: cell-based; conditions: for Metabolized: Metabolized = more formazan formation than a control containing no carbon source, observed visually at 2 h, 24 h, 148 h; for Carbon sources that Mortierella elongata AG77 can metabolize: summary of Table 3
In short: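 Scoring was by eye at 2, 24 and 148 h after tetrazolium chloride went into wells preincubated 24 h at 21 °C. Wells held lyophilised candidate carbon or nitrogen sources in pH 5.5 mineral medium lacking that nutrient, inoculated with 3 mm PDA-grown mycelial plugs. Formazan above the no-carbon control counted as metabolised and below it as toxic.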

[3] = compound as nitrogen source, Toxic = less formazan formation than a control containing no nitrogen source
[4] = compound as carbon source, Toxic = less formazan formation than a control containing no carbon source

| Structure (SMILES) | Toxic [1] | Metabolized ([1]; compound as nitrogen source) | Nitrogen sources that Mortierella elongata AG77 can metabolize [1] | Toxic [2] | Metabolized ([2]; compound as carbon source) | Carbon sources that Mortierella elongata AG77 can metabolize [2] | Toxic [1, 3] | Toxic [2, 4] |
| --- | --- | --- | --- | --- | --- | --- | --- | --- |
| C[C@@H](N)C(=O)O [D-Alanine] | no | yes | can metabolize | no | yes | can metabolize | – | – |
| CC(C)C[C@H](N)C(=O)O [L-Leucine] | no | no | – | no | no | – | – | – |
| N[C@@H](CCC(=O)O)C(=O)O [L-Glutamic Acid] | – | yes | can metabolize | – | no | – | no | no |
| O=c1ccn([C@@H]2O[C@H](CO)[C@@H](O)[C@H]2O)c(=O)[nH]1 [Uridine] | no | no | – | no | no | – | – | – |
| CC[C@H](C)[C@H](N)C(=O)O [L-Isoleucine] | no | yes | can metabolize | no | no | – | – | – |
| NCC(=O)O [Glycine] | no | yes | can metabolize | no | no | – | – | – |
| N[C@H]1C(O)O[C@H](CO)[C@@H](O)[C@@H]1O (stereo partly drawn) [D-Glucosamine] | no | no | – | no | yes | can metabolize | – | – |
| N[C@@H](CO)C(=O)O [L-Serine] | no | no | – | no | no | – | – | – |
| N[C@@H](Cc1c[nH]cn1)C(=O)O [L-Histidine] | no | yes | can metabolize | no | no | – | – | – |
| NCCc1ccc(O)cc1 [Tyramine] | no | no | – | no | yes | can metabolize | – | – |
| Cc1cn([C@H]2C[C@H](O)[C@@H](CO)O2)c(=O)[nH]c1=O [Thymidine] | no | no | – | no | no | – | – | – |
| N[C@@H](CC(=O)O)C(=O)O [L-Aspartic Acid] | no | no | – | no | yes | can metabolize | – | – |
| CSCC[C@H](N)C(=O)O [L-Methionine] | no | no | – | no | no | – | – | – |
| NC(=O)CC[C@H](N)C(=O)O [L-Glutamine] | no | yes | can metabolize | yes | no | – | – | – |
| NCCCCN [Putrescine] | no | no | – | no | yes | can metabolize | – | – |
| OC[C@H]1O[C@@H](n2cnc3c(O)ncnc32)[C@H](O)[C@@H]1O [Inosine] | – | no | – | – | yes | can metabolize | no | no |
| CC(=O)N[C@H]1C(O)O[C@H](CO)[C@@H](O)[C@@H]1O (stereo partly drawn) [N-Acetyl-D-Glucosamine] | – | yes | can metabolize | – | yes | can metabolize | no | no |
| CC(=O)N[C@@H](CCC(=O)O)C(=O)O [N-Acetyl-L-Glutamic Acid] | no | no | – | no | yes | can metabolize | – | – |
| C[C@@H](O)[C@H](N)C(=O)O [L-Threonine] | no | no | – | no | yes | can metabolize | – | – |
| CCN [Ethylamine] | – | no | – | – | – | – | no | – |
| C[C@H](N)C(=O)N[C@@H](CCC(=O)O)C(=O)O [Ala-Glu] (H-Ala-Glu-OH) | – | yes | can metabolize | – | – | – | no | – |
| O=C1CC[C@@H](C(=O)O)N1 [L-Pyroglutamic Acid] | no | no | – | no | no | – | – | – |
| CC(C)C[C@H](NC(=O)[C@H](C)N)C(=O)O [Ala-Leu] (H-Ala-Leu-OH) | – | yes | can metabolize | – | – | – | no | – |
| NC=O [Formamide] | – | no | – | – | – | – | no | – |
| CSCC[C@H](NC(=O)CN)C(=O)O [Gly-Met] | – | no | – | – | – | – | no | – |
| Nc1ncnc2c1ncn2[C@@H]1O[C@H](CO)[C@@H](O)[C@H]1O [Adenosine] | no | no | – | no | yes | can metabolize | – | – |
| NCC(=O)N[C@@H](CCC(=O)O)C(=O)O [Glycyl-L-Glutamic Acid] (H-Gly-Glu-OH) | – | no | – | – | no | – | no | no |

| Structure (SMILES) | Toxic [1] | Metabolized ([1]; compound as nitrogen source) | Nitrogen sources that Mortierella elongata AG77 can metabolize [1] | Toxic [2] | Metabolized ([2]; compound as carbon source) | Carbon sources that Mortierella elongata AG77 can metabolize [2] | Toxic [1, 3] | Toxic [2, 4] |
| --- | --- | --- | --- | --- | --- | --- | --- | --- |
| NCCCC(=O)O [γ-Amino Butyric Acid] | no | yes | can metabolize | no | no | – | – | – |
| CC(C)[C@H](N)C(=O)O [L-Valine] | no | no | – | no | no | – | – | – |
| NC(=O)NCCC[C@H](N)C(=O)O [L-Citrulline] | – | no | – | – | – | – | no | – |
| O=NO [Nitrite] | – | no | – | – | – | – | no | – |
| C[C@H](N)C(=O)N[C@@H](CCC(N)=O)C(=O)O [Ala-Gln] (H-Ala-Gln-OH) | – | yes | can metabolize | – | – | – | no | – |
| Nc1cc[nH]c(=O)n1 [Cytosine] | no | no | – | – | – | – | – | – |
| N [Ammonia] | no | no | – | – | – | – | – | – |
| N[C@@H](Cc1c[nH]c2ccccc12)C(=O)O [L-Tryptophan] | no | no | – | – | – | – | – | – |
| NO [Hydroxylamine] | – | no | – | – | – | – | – | – |
| CCCCCCC(N)C(=O)O (racemic) [D,L-α-Amino- Caprylic Acid] | – | no | – | – | – | – | no | – |
| N[C@H](CCC(=O)O)C(=O)O [D-Glutamic Acid] | – | no | – | – | – | – | no | – |
| NCCN [Ethylenediamine] | no | no | – | – | – | – | – | – |
| O=c1[nH]c(=O)c2[nH]cnc2[nH]1 [Xanthine] | no | no | – | – | – | – | – | – |
| NC(=O)C[C@@H](N)C(=O)O [D-Asparagine] | no | no | – | – | – | – | – | – |
| O=c1[nH]c(=O)c2[nH]c(=O)[nH]c2[nH]1 [Uric Acid] | – | no | – | – | – | – | no | – |
| C[C@H](N)C(=O)N[C@@H](Cc1cnc[nH]1)C(=O)O [Ala-His] (H-Ala-His-OH) | – | no | – | – | – | – | no | – |
| CSCC[C@H](N)C(=O)N[C@@H](C)C(=O)O [Met-Ala] (H-Met-Ala-OH) | – | no | – | – | – | – | no | – |
| N[C@@H](CS)C(=O)O [L-Cysteine] | – | no | – | – | – | – | – | – |
| NCC(=O)N[C@@H](CCC(N)=O)C(=O)O [Gly-Gln] (H-Gly-Gln-OH) | – | no | – | – | – | – | no | – |
| NC(N)=O [Urea] | – | no | – | – | – | – | no | – |
| CC(=O)N[C@@H]1C(O)O[C@H](CO)[C@@H](O)[C@@H]1O (stereo partly drawn) [N-Acetyl-D-Mannosamine] | – | no | – | – | – | – | no | – |
| Nc1ncnc2nc[nH]c12 [Adenine] | no | no | – | – | – | – | – | – |
| O=C1NC(=O)C(=O)N1 [Parabanic Acid] | – | yes | can metabolize | – | – | – | no | – |
| C[C@H](N)C(=O)N[C@H](C(=O)O)[C@@H](C)O [Ala-Thr] (H-Ala-Thr-OH) | – | no | – | – | – | – | no | – |
| Cc1c[nH]c(=O)[nH]c1=O [Thymine] | no | no | – | – | – | – | – | – |
| N[C@@H](Cc1ccc(O)cc1)C(=O)O [L-Tyrosine] | – | no | – | – | – | – | no | – |
